Data on 13 molecules can be found in US20260022142A1, “MACROCYCLIC IMMUNOMODULATORS” (Bristol-Myers Squibb Company, priority 2022, published 2026).

Bridge positions count the residues as written; N and C are the ends. Square brackets hold non-standard residues; d marks the D form. Peptide text beside a SMILES is read from it. * marks the point of attachment. ξ: configuration not given here. Bip = N[C@@H](Cc1ccc(-c2ccccc2)cc1)C(=O)O; Phe(3-Me) = Cc1cccc(C[C@H](N)C(=O)O)c1; NMeR = CN[C@@H](CCCNC(=N)N)C(=O)O; hArg = N=C(N)NCCCC[C@H](N)C(=O)O; Cha = N[C@@H](CC1CCCCC1)C(=O)O; Cit = NC(=O)NCCC[C@H](N)C(=O)O; Thr(3ξ) = CC(O)[C@H](N)C(=O)O; Tle = CC(C)(C)[C@H](N)C(=O)O; 12Ado = NCCCCCCCCCCCC(=O)O; dOrn = NCCC[C@@H](N)C(=O)O; dDab = NCC[C@@H](N)C(=O)O; hSer = N[C@@H](CCO)C(=O)O; Carboxymethyl = O=C(O)C*; Orn = NCCC[C@H](N)C(=O)O; Aun = NCCCCCCCCCCC(=O)O; Dab = NCC[C@H](N)C(=O)O; Dap = NC[C@H](N)C(=O)O; Piv = CC(C)(C)C(=O)*

T1 sequence (Q15116 25-288): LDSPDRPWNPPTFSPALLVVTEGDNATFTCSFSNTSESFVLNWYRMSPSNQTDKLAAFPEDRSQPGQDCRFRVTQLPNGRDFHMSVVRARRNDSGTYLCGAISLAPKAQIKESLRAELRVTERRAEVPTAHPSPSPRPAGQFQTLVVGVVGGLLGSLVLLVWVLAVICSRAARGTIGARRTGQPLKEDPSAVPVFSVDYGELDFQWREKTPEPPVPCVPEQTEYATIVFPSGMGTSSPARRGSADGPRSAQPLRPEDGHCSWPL

This experiment addresses T1, PD-1/PD-L1 interaction (PE-labeled human PD-L1-Ig binding to Jurkat cell line over-expressing human PD-1) (Homo sapiens, UniProt Q15116).
T1 construct: expressed in transfected cells; host or cells: Jurkat
As to the kind of experiment: Jurkat-PD-1 Cell Binding High-Content Screening Assay (CBA). It counts as cell-based. As to conditions: Jurkat cell line over-expressing human PD-1; PE-labeled PD-L1-Ig 20 nM final; read-out: Jurkat hPD1-PDL1 IC50. Put shortly: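 Binding of fluorescent PD-L1-Ig (phycoerythrin on Ig tag, 20 nM final, 1 h) measured by high-content imaging of fixed, Hoechst-counterstained Jurkat-hPD-1 cells. Compound added 2 h at 37° C beforehand, in DMEM with 10% fetal calf serum.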
What is called IC50 is the concentration needed to halve the response being measured. For the molecule `Cc1cccc(C[C@@H]2NC(=O)[C@H](CC(=O)O)NC(=O)[C@H](Cc3ccc(OCC(=O)O)cc3)NC(=O)[C@H](CCCNC(=N)N)NC(=O)CSC[C@@H](C(=O)N[C@@H](CCN)C(=O)NCCCCCCCCCCC(=O)O)NC(=O)[C@H](C(C)O)NC(=O)[C@H](C(C)C)NC(=O)[C@H](CC3CCCCC3)NC(=O)[C@H](CCN)NC(=O)[C@@H](CC(C)C)NC(=O)[C@H](CCCN)NC(=O)[C@H](CCCCNC(=O)C(C)(C)C)NC(=O)[C@H](Cc3ccc(-c4ccccc4)cc3)NC(=O)[C@H](Cc3ccc(O)cc3)NC2=O)c1` (stereo partly drawn) [Compound 3556] ({CH2CO}-RY(Carboxymethyl)D[Phe(3-Me)]Y[Bip]K(Piv)[Orn][dL][Dab][Cha]V[Thr(3ξ)]C[Dab][Aun]-OH; thioether N-14), the half-inhibitory concentration (IC50) amounted to 13.2 nM.
On to `CC(=O)NCCCC[C@@H]1NC(=O)[C@H](Cc2ccc(-c3ccccc3)cc2)NC(=O)[C@H](C(C)C)NC(=O)[C@H](Cc2cccc(C)c2)NC(=O)[C@H](CC(=O)O)NC(=O)[C@H](Cc2ccc(OCC(=O)O)cc2)NC(=O)[C@H](CCCNC(=N)N)NC(=O)CSC[C@@H](C(=O)N[C@H](CCN)C(=O)NCCCCCCCCCCC(=O)O)NC(=O)[C@H](C(C)O)NC(=O)[C@H](C(C)C)NC(=O)[C@H](CC2CCCCC2)NC(=O)[C@H](CCN)NC(=O)[C@@H](CC(C)C)NC(=O)[C@H](CCCN)NC1=O` (stereo partly drawn) [Compound 3558] ({CH2CO}-RY(Carboxymethyl)D[Phe(3-Me)]V[Bip]K(Ac)[Orn][dL][Dab][Cha]V[Thr(3ξ)]C[dDab][Aun]-OH; thioether N-14), for which the IC50 is 29.8 nM.
For the molecule `CC(=O)NCCCC[C@@H]1NC(=O)[C@H](Cc2ccc(-c3ccccc3)cc2)NC(=O)[C@H](C(C)C)NC(=O)[C@H](Cc2cccc(C)c2)NC(=O)[C@H](CC(=O)O)NC(=O)[C@H](Cc2ccc(OCC(=O)O)cc2)NC(=O)[C@H](CCCNC(=N)N)NC(=O)CSC[C@@H](C(=O)N[C@H](CCCN)C(=O)NCCCCCCCCCCC(=O)O)NC(=O)[C@H](C(C)O)NC(=O)[C@H](C(C)C)NC(=O)[C@H](CC2CCCCC2)NC(=O)[C@H](CCN)NC(=O)[C@@H](CC(C)C)NC(=O)[C@H](CCCN)NC1=O` (stereo partly drawn) [Compound 3559] ({CH2CO}-RY(Carboxymethyl)D[Phe(3-Me)]V[Bip]K(Ac)[Orn][dL][Dab][Cha]V[Thr(3ξ)]C[dOrn][Aun]-OH; thioether N-14), the half-maximal inhibitory concentration (IC50) came to 14.1 nM.
In the case of `CC(=O)NCCCC[C@@H]1NC(=O)[C@H](Cc2ccc(-c3ccccc3)cc2)NC(=O)[C@H](C(C)C)NC(=O)[C@H](Cc2cccc(C)c2)NC(=O)[C@H](CC(=O)O)NC(=O)[C@H](Cc2ccc(OCC(=O)O)cc2)NC(=O)[C@H](CCCNC(=N)N)NC(=O)CSC[C@@H](C(=O)N[C@@H](CCN)C(=O)NCCCCCCCCCCC(=O)O)NC(=O)[C@H](C(C)O)NC(=O)[C@H](C(C)(C)C)NC(=O)[C@H](CC2CCCCC2)NC(=O)[C@H](CCN)NC(=O)[C@@H](CC(C)C)NC(=O)[C@H](CCCN)NC1=O` (stereo partly drawn) [Compound 3560] ({CH2CO}-RY(Carboxymethyl)D[Phe(3-Me)]V[Bip]K(Ac)[Orn][dL][Dab][Cha][Tle][Thr(3ξ)]C[Dab][Aun]-OH; thioether N-14), the IC50 is 17.9 nM.
Take `Cc1cccc(C[C@@H]2NC(=O)[C@H](CC(=O)O)NC(=O)[C@H](Cc3ccc(OCC(=O)O)cc3)NC(=O)[C@H](CCCNC(=N)N)NC(=O)CSC[C@@H](C(=O)N[C@H](CO)C(=O)NCCCCCCCCCCCC(=O)O)NC(=O)[C@H](C(C)O)NC(=O)[C@H](C(C)C)NC(=O)[C@H](CC3CCCCC3)NC(=O)[C@H](CCN)NC(=O)[C@@H](CC(C)C)NC(=O)[C@H](CCCN)NC(=O)[C@H](CCCNC(N)=O)NC(=O)[C@H](Cc3ccc(-c4ccccc4)cc3)NC(=O)[C@H](C(C)C)NC2=O)c1` (stereo partly drawn) [Compound 3561] ({CH2CO}-RY(Carboxymethyl)D[Phe(3-Me)]V[Bip][Cit][Orn][dL][Dab][Cha]V[Thr(3ξ)]C[dS][12Ado]-OH; thioether N-14): the IC50 came out at 40.5 nM.
In the case of `Cc1cccc(C[C@@H]2NC(=O)[C@H](CC(=O)O)NC(=O)[C@H](Cc3ccc(OCC(=O)O)cc3)NC(=O)[C@H](CCCNC(=N)N)N(C)C(=O)CSC[C@@H](C(=O)N[C@@H](CCN)C(=O)NCCCCCCCCCCC(=O)O)NC(=O)[C@H](C(C)O)NC(=O)[C@H](C(C)C)NC(=O)[C@H](CC3CCCCC3)NC(=O)[C@H](CCN)NC(=O)[C@@H](CC(C)C)NC(=O)[C@H](CCCN)NC(=O)[C@H](CCCNC(N)=O)NC(=O)[C@H](Cc3ccc(-c4ccccc4)cc3)NC(=O)[C@H](C(C)C)NC2=O)c1` (stereo partly drawn) [Compound 3562] ({CH2CO}-[NMeR]Y(Carboxymethyl)D[Phe(3-Me)]V[Bip][Cit][Orn][dL][Dab][Cha]V[Thr(3ξ)]C[Dab][Aun]-OH; thioether N-14), the IC50 came out at 28.4 nM.
Take `CC(=O)NCCCC[C@H](NC(=O)[C@@H]1CSCC(=O)N[C@@H](CCN)C(=O)N[C@@H](Cc2ccc(OCC(=O)O)cc2)C(=O)N[C@@H](CC(=O)O)C(=O)N[C@@H](Cc2cccc(C)c2)C(=O)N[C@@H](C(C)C)C(=O)N[C@@H](Cc2ccc(-c3ccccc3)cc2)C(=O)N[C@@H](CCCNC(N)=O)C(=O)N[C@@H](CCCN)C(=O)N[C@H](CC(C)C)C(=O)N[C@@H](CN)C(=O)N[C@@H](CC2CCCCC2)C(=O)N[C@@H](C(C)C)C(=O)N[C@@H](C(C)O)C(=O)N1)C(=O)NCCCCCCCCCCC(=O)O` (stereo partly drawn) [Compound 3563] ({CH2CO}-[Dab]Y(Carboxymethyl)D[Phe(3-Me)]V[Bip][Cit][Orn][dL][Dap][Cha]V[Thr(3ξ)]CK(Ac)[Aun]-OH; thioether N-14): the IC50 was found to be 43.9 nM.
The result for `Cc1cccc(C[C@@H]2NC(=O)[C@H](CC(=O)O)NC(=O)[C@H](Cc3ccc(OCC(=O)O)cc3)NC(=O)[C@H](CCCNC(=N)N)NC(=O)CSC[C@@H](C(=O)N[C@@H](CCO)C(=O)N[C@@H](CCC(=O)O)C(=O)NCCCCCCCCCCCC(=O)O)NC(=O)[C@H](C(C)O)NC(=O)[C@H](C(C)C)NC(=O)[C@H](CC3CCCCC3)NC(=O)[C@H](CCN)NC(=O)[C@@H](CC(C)C)NC(=O)[C@H](CCCN)NC(=O)[C@H](CCCNC(N)=O)NC(=O)[C@H](Cc3ccc(-c4ccccc4)cc3)NC(=O)[C@H](C(C)C)NC2=O)c1` (stereo partly drawn) [Compound 3564] ({CH2CO}-RY(Carboxymethyl)D[Phe(3-Me)]V[Bip][Cit][Orn][dL][Dab][Cha]V[Thr(3ξ)]C[hSer]E[12Ado]-OH; thioether N-14) reads 19.5 nM; that for `Cc1cccc(C[C@@H]2NC(=O)[C@H](CC(=O)O)NC(=O)[C@H](Cc3ccc(OCC(=O)O)cc3)NC(=O)[C@H](CCCNC(=N)N)NC(=O)CSC[C@@H](C(=O)N[C@@H](CCO)C(=O)NCCCCCCCCCCCC(=O)O)NC(=O)[C@H](C(C)O)NC(=O)[C@H](C(C)C)NC(=O)[C@H](CC3CCCCC3)NC(=O)[C@H](CCN)NC(=O)[C@@H](CC(C)C)NC(=O)[C@H](CCCN)NC(=O)[C@H](CCCNC(N)=O)NC(=O)[C@H](Cc3ccc(-c4ccccc4)cc3)NC(=O)[C@H](C(C)C)NC2=O)c1` (stereo partly drawn) [Compound 3565] ({CH2CO}-RY(Carboxymethyl)D[Phe(3-Me)]V[Bip][Cit][Orn][dL][Dab][Cha]V[Thr(3ξ)]C[hSer][12Ado]-OH; thioether N-14), 39.4 nM.
As to `Cc1cccc(C[C@@H]2NC(=O)[C@H](CC(=O)O)NC(=O)[C@H](Cc3ccc(OCC(=O)O)cc3)NC(=O)[C@H](CCO)NC(=O)CSC[C@@H](C(=O)N[C@@H](CCO)C(=O)N[C@@H](CO)C(=O)NCCCCCCCCCCCC(=O)O)NC(=O)[C@H](C(C)O)NC(=O)[C@H](C(C)C)NC(=O)[C@H](CC3CCCCC3)NC(=O)[C@H](CCN)NC(=O)[C@@H](CC(C)C)NC(=O)[C@H](CCCN)NC(=O)[C@H](CCCNC(N)=O)NC(=O)[C@H](Cc3ccc(-c4ccccc4)cc3)NC(=O)[C@H](C(C)C)NC2=O)c1` (stereo partly drawn) [Compound 3566] ({CH2CO}-[hSer]Y(Carboxymethyl)D[Phe(3-Me)]V[Bip][Cit][Orn][dL][Dab][Cha]V[Thr(3ξ)]C[hSer]S[12Ado]-OH; thioether N-14), the IC50 was determined as 19.2 nM.
Turning to `Cc1cccc(C[C@@H]2NC(=O)[C@H](CC(=O)O)NC(=O)[C@H](Cc3ccc(OCC(=O)O)cc3)NC(=O)[C@H](C(C)O)NC(=O)CSC[C@@H](C(=O)N[C@@H](CCC(=O)O)C(=O)N[C@@H](CO)C(=O)NCCCCCCCCCCC(=O)O)NC(=O)[C@H](C(C)O)NC(=O)[C@H](C(C)C)NC(=O)[C@H](CC3CCCCC3)NC(=O)[C@H](CCN)NC(=O)[C@@H](CC(C)C)NC(=O)[C@H](CCCN)NC(=O)[C@H](CCCNC(N)=O)NC(=O)[C@H](Cc3ccc(-c4ccccc4)cc3)NC(=O)[C@H](C(C)C)NC2=O)c1` (stereo partly drawn) [Compound 3567] ({CH2CO}-[Thr(3ξ)]Y(Carboxymethyl)D[Phe(3-Me)]V[Bip][Cit][Orn][dL][Dab][Cha]V[Thr(3ξ)]CES[Aun]-OH; thioether N-14), the concentration for half-maximal inhibition (IC50) was 33.5 nM.
As for `Cc1cccc(C[C@@H]2NC(=O)[C@H](CC(=O)O)NC(=O)[C@H](Cc3ccc(OCC(=O)O)cc3)NC(=O)[C@H](CCCCNC(=N)N)NC(=O)CSC[C@@H](C(=O)N[C@@H](CCCN)C(=O)N[C@@H](CCO)C(=O)NCCCCCCCCCCCC(=O)O)NC(=O)[C@H](C(C)O)NC(=O)[C@H](C(C)C)NC(=O)[C@H](CC3CCCCC3)NC(=O)[C@H](CCN)NC(=O)[C@@H](CC(C)C)NC(=O)[C@H](CCCN)NC(=O)[C@H](CCCNC(N)=O)NC(=O)[C@H](Cc3ccc(-c4ccccc4)cc3)NC(=O)[C@H](C(C)C)NC2=O)c1` (stereo partly drawn) [Compound 3568] ({CH2CO}-[hArg]Y(Carboxymethyl)D[Phe(3-Me)]V[Bip][Cit][Orn][dL][Dab][Cha]V[Thr(3ξ)]C[Orn][hSer][12Ado]-OH; thioether N-14), the IC50 was 15.1 nM.
For `Cc1cccc(C[C@@H]2NC(=O)[C@H](CC(=O)O)NC(=O)[C@H](Cc3ccc(OCC(=O)O)cc3)NC(=O)[C@H](CO)NC(=O)CSC[C@@H](C(=O)N[C@@H](CCO)C(=O)N[C@@H](CO)C(=O)NCCCCCCCCCCCC(=O)O)NC(=O)[C@H](C(C)O)NC(=O)[C@H](C(C)C)NC(=O)[C@H](CC3CCCCC3)NC(=O)[C@H](CCN)NC(=O)[C@@H](CC(C)C)NC(=O)[C@H](CCCN)NC(=O)[C@H](CCCNC(N)=O)NC(=O)[C@H](Cc3ccc(-c4ccccc4)cc3)NC(=O)[C@H](C(C)C)NC2=O)c1` (stereo partly drawn) [Compound 3569] ({CH2CO}-SY(Carboxymethyl)D[Phe(3-Me)]V[Bip][Cit][Orn][dL][Dab][Cha]V[Thr(3ξ)]C[hSer]S[12Ado]-OH; thioether N-14), the IC50 was 23.6 nM.
